From PubChem BioAssay (NCI)
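These data come from cells grown in 96-well plates and exposed to compound for 48 hours at five concentrations. Here, GI50 denotes the concentration required for 50% inhibition of growth. TGI denotes the concentration required for complete inhibition of growth.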

Experiments:
Experiment in all cases: NCI tumour cell line growth inhibition, 48 h
A498 renal = test system: A498 renal
SN12C renal = test system: SN12C renal
OVCAR-5 ovarian = test system: OVCAR-5 ovarian
ACHN renal = test system: ACHN renal
HOP-62 NSCLC = test system: HOP-62 NSCLC
OVCAR-4 ovarian = test system: OVCAR-4 ovarian
SK-MEL-28 melanoma = test system: SK-MEL-28 melanoma
DU-145 prostate = test system: DU-145 prostate
UACC-257 melanoma = test system: UACC-257 melanoma
UACC-62 melanoma = test system: UACC-62 melanoma
MCF7 breast = test system: MCF7 breast
HT29 colon = test system: HT29 colon
K-562 leukemia = test system: K-562 leukemia
NCI-H522 lung = test system: NCI-H522 lung
T-47D breast = test system: T-47D breast
OVCAR-8 ovarian = test system: OVCAR-8 ovarian
M14 melanoma = test system: M14 melanoma
NCI-H226 lung = test system: NCI-H226 lung
HCC-2998 colon = test system: HCC-2998 colon
SF-295 CNS = test system: SF-295 CNS
OVCAR-3 ovarian = test system: OVCAR-3 ovarian
NCI/ADR-RES ovarian = test system: NCI/ADR-RES ovarian
IGROV1 ovarian = test system: IGROV1 ovarian
MOLT-4 leukemia = test system: MOLT-4 leukemia
RPMI-8226 leukemia = test system: RPMI-8226 leukemia
SK-MEL-2 melanoma = test system: SK-MEL-2 melanoma
SNB-75 CNS = test system: SNB-75 CNS
SK-OV-3 ovarian = test system: SK-OV-3 ovarian
SNB-19 CNS = test system: SNB-19 CNS
TK-10 renal = test system: TK-10 renal
RXF 393 renal = test system: RXF 393 renal
COLO 205 colon = test system: COLO 205 colon
CAKI-1 renal = test system: CAKI-1 renal
SF-268 CNS = test system: SF-268 CNS
HS 578T breast = test system: HS 578T breast
HCT-116 colon = test system: HCT-116 colon
SK-MEL-5 melanoma = test system: SK-MEL-5 melanoma
BT-549 breast = test system: BT-549 breast
HCT-15 colon = test system: HCT-15 colon
MDA-MB-231 breast = test system: MDA-MB-231 breast
SW-620 colon = test system: SW-620 colon
MDA-MB-435 = test system: MDA-MB-435
LOX IMVI melanoma = test system: LOX IMVI melanoma
A549 NSCLC = test system: A549 NSCLC
NCI-H23 lung = test system: NCI-H23 lung
SR leukemia = test system: SR leukemia
CCRF-CEM leukemia = test system: CCRF-CEM leukemia
NCI-H460 lung = test system: NCI-H460 lung
U251 CNS = test system: U251 CNS
PC-3 prostate = test system: PC-3 prostate
KM12 colon = test system: KM12 colon
SF-539 CNS = test system: SF-539 CNS

Compound: Nc1ncc(-c2ccc3ncnc(N4CCc5ccc(Cl)cc54)c3c2)cn1
- GI50 (A498 renal): 248 nM
- TGI (A498 renal): 800 nM
- GI50 (SN12C renal): 813 nM
- TGI (SN12C renal): > 100000 nM
- GI50 (OVCAR-5 ovarian): 532 nM
- TGI (OVCAR-5 ovarian): > 100000 nM
- GI50 (ACHN renal): 584 nM
- TGI (ACHN renal): > 100000 nM
- GI50 (HOP-62 NSCLC): 743 nM
- TGI (HOP-62 NSCLC): > 100000 nM
- GI50 (OVCAR-4 ovarian): 1610 nM
- TGI (OVCAR-4 ovarian): 24800 nM
- GI50 (SK-MEL-28 melanoma): 2010 nM
- TGI (SK-MEL-28 melanoma): > 100000 nM
- GI50 (DU-145 prostate): 971 nM
- TGI (DU-145 prostate): > 100000 nM
- GI50 (UACC-257 melanoma): 2980 nM
- TGI (UACC-257 melanoma): > 100000 nM
- GI50 (UACC-62 melanoma): 1310 nM
- TGI (UACC-62 melanoma): 5980 nM
- GI50 (MCF7 breast): 684 nM
- TGI (MCF7 breast): 31700 nM
- GI50 (HT29 colon): 1060 nM
- TGI (HT29 colon): 82600 nM
- GI50 (K-562 leukemia): 2220 nM
- TGI (K-562 leukemia): > 100000 nM
- GI50 (NCI-H522 lung): 2660 nM
- TGI (NCI-H522 lung): 15800 nM
- GI50 (T-47D breast): 313 nM
- TGI (T-47D breast): 30000 nM
- GI50 (OVCAR-8 ovarian): 1840 nM
- TGI (OVCAR-8 ovarian): > 100000 nM
- GI50 (M14 melanoma): 1880 nM
- TGI (M14 melanoma): > 100000 nM
- GI50 (NCI-H226 lung): 1350 nM
- TGI (NCI-H226 lung): 27400 nM
- GI50 (HCC-2998 colon): 1500 nM
- TGI (HCC-2998 colon): 87200 nM
- GI50 (SF-295 CNS): 1030 nM
- TGI (SF-295 CNS): 6890 nM
- GI50 (OVCAR-3 ovarian): 1880 nM
- TGI (OVCAR-3 ovarian): > 100000 nM
- GI50 (NCI/ADR-RES ovarian): 1860 nM
- TGI (NCI/ADR-RES ovarian): > 100000 nM
- GI50 (IGROV1 ovarian): 291 nM
- TGI (IGROV1 ovarian): 2340 nM
- GI50 (MOLT-4 leukemia): 563 nM
- TGI (MOLT-4 leukemia): 3810 nM
- GI50 (RPMI-8226 leukemia): 584 nM
- TGI (RPMI-8226 leukemia): 4440 nM
- GI50 (SK-MEL-2 melanoma): 1560 nM
- TGI (SK-MEL-2 melanoma): 4530 nM
- GI50 (SNB-75 CNS): 418 nM
- TGI (SNB-75 CNS): 3980 nM
- GI50 (SK-OV-3 ovarian): 1370 nM
- TGI (SK-OV-3 ovarian): 7030 nM
- GI50 (SNB-19 CNS): 2550 nM
- TGI (SNB-19 CNS): > 100000 nM
- GI50 (TK-10 renal): 354 nM
- TGI (TK-10 renal): 3850 nM
- GI50 (RXF 393 renal): 606 nM
- TGI (RXF 393 renal): 3000 nM
- GI50 (COLO 205 colon): 2010 nM
- TGI (COLO 205 colon): 9530 nM
- GI50 (CAKI-1 renal): 1190 nM
- TGI (CAKI-1 renal): > 100000 nM
- GI50 (SF-268 CNS): 1630 nM
- TGI (SF-268 CNS): > 100000 nM
- GI50 (HS 578T breast): 437 nM
- TGI (HS 578T breast): 4390 nM
- GI50 (HCT-116 colon): 1680 nM
- TGI (HCT-116 colon): 10800 nM
- GI50 (SK-MEL-5 melanoma): 1460 nM
- TGI (SK-MEL-5 melanoma): 4940 nM
- GI50 (BT-549 breast): 603 nM
- TGI (BT-549 breast): 8510 nM
- GI50 (HCT-15 colon): 1330 nM
- TGI (HCT-15 colon): > 100000 nM
- GI50 (MDA-MB-231 breast): 994 nM
- TGI (MDA-MB-231 breast): > 100000 nM
- GI50 (SW-620 colon): 2830 nM
- TGI (SW-620 colon): > 100000 nM
- GI50 (MDA-MB-435): 2190 nM
- TGI (MDA-MB-435): > 100000 nM
- GI50 (LOX IMVI melanoma): 870 nM
- TGI (LOX IMVI melanoma): 23500 nM
- GI50 (A549 NSCLC): 1260 nM
- TGI (A549 NSCLC): > 100000 nM
- GI50 (NCI-H23 lung): 1900 nM
- TGI (NCI-H23 lung): > 100000 nM
- GI50 (SR leukemia): 1040 nM
- TGI (SR leukemia): 18100 nM
- GI50 (CCRF-CEM leukemia): 1020 nM
- TGI (CCRF-CEM leukemia): > 100000 nM
- GI50 (NCI-H460 lung): 1460 nM
- TGI (NCI-H460 lung): > 100000 nM
- GI50 (U251 CNS): 2460 nM
- TGI (U251 CNS): > 100000 nM
- GI50 (PC-3 prostate): 739 nM
- TGI (PC-3 prostate): > 100000 nM
- GI50 (KM12 colon): 2340 nM
- TGI (KM12 colon): 97600 nM
- GI50 (SF-539 CNS): 1110 nM
- TGI (SF-539 CNS): 3790 nM
